The source of these data is patent publication US20140336182A1, “Aurora Kinase Modulators and Method of Use” (Amgen Inc., priority 2013, published 2014).

Where only a bound is given, the exact number is not on record here.

The first test has as its system HeLa cells. Briefly: HeLa cell 24 hr ploidy assay (DNA content). It counts as cell-based. The following applies: HeLa cells, 4N ploidy, average, read-out: 24h_4NPloidy EC50_IP (uM Avg). How it is done:
HeLa cell 24 hr ploidy assay protocol
The purpose of this assay is to evaluate the ability of selected individual compounds to induce Deoxyribonucleic acid (DNA) content (ploidy) in cells through failed cell division. Cell cycle analysis is a rapid and efficient way to evaluate the status of DNA content (ploidy) of a given cell. HeLa cells (1×10^4 HeLa cells/well) in 100 ul of media (MEM+10% FBS) were plated in 96-well plates (Packard View) and cultured for 24 hrs at 37° C. maintained in a 5% CO2 atmosphere. […] The compounds were serially diluted in DMSO (0.25% final concentration). The cells were fixed (3.7% Formaldehyde and 1% glutaraldehyde) and permeabilized (1×PBS with 1% BSA and 0.2% Triton X-100) in preparation for nuclear staining. The well plates were stained for 45 minutes at RT in the dark using Hoechest 33342 nuclear stain at 0.5 ug.ml (Stock of 10 mg/ml, Invitrogen, CA, Cat #H3570). The nuclear stain was removed by aspiration and the cells were washed with wash buffer. A Cellomics Array Scan Vti plate reader was used to acquire the DNA ploidy data of the cells using Cell Cycle bioapplication. Numbers for each of “valid cell count/well”, “% of 4N cells” and “% of >4Ncells” were calculated with the assistance of an Activity Base 5.1ca software and dose curves were generated using an XLFit software. With XLFit, final EC50 IP and EC50 transit values, as well as the Max and Min, were calculated for each curve.
For `c1ccc(-c2nnc(Nc3ccc(Sc4ccnc5cccnc45)cc3)c3ccccc23)cc1` [compound 309], the EC50 was found to be 0.021 µM.

Staying with this test, now noted: Homo sapiens, HeLa, 4N ploidy, average, read-out: 24h_4NPloidy EC50_IP (uM Avg).
With `COc1cc2nccc(Oc3ccc(Nc4nnc(-c5cccc(C)n5)c5ccccc45)cn3)c2cn1` [compound 127], the EC50 is above 1.2 µM.
On the same count and under the same terms, under `COc1cc2nccc(Oc3ccc(Nc4nnc(-c5cccs5)c5ccccc45)cc3F)c2cc1OC` [compound 76] stands 0.06 µM.
For `COc1cc2nccc(Oc3ccc(Nc4nnc(-c5ccc(C(C)(C)C)cc5)c5ccccc45)cc3)c2cc1OC` [compound 106], the EC50 came to 0.033 µM.
Same read-out and setting: to `COc1cnc2c(Oc3ccc(Nc4nnc(-c5ccc(C)cn5)c5ccccc45)cc3)ccnc2c1` [compound 125] belongs 0.059 µM.
Turning to `Fc1cc(Nc2nnc(-c3ccccc3)c3ccccc23)ccc1Oc1ccnc2ccccc12` [compound 115], the EC50 amounted to 0.116 µM.
With `COc1cc2nccc(Oc3ccc(Nc4nnc(N5CCN(C)CC5)c5ccccc45)cc3)c2cn1` [compound 109], the EC50 was 0.297 µM.

The same test, now with this note: Homo sapiens, HeLa, HeLa cells, 4N ploidy, average, read-out: 24h_4NPloidy EC50_IP (uM Avg).
As for `COc1cnc2c(Oc3ccc(Nc4nnc(-c5cccc6[nH]ccc56)c5ccccc45)cc3)ccnc2c1` [compound 183], the EC50 was 0.052 µM.
Take `COc1cnc2c(Sc3ccc(Nc4nnc(-c5cscn5)c5ccccc45)cc3)ccnc2c1` [compound 506]: the EC50 came out at 0.067 µM.
As to `COc1cnc2c(Oc3ccc(Nc4nnc(-c5cccnc5F)c5ccccc45)cc3)ccnc2c1` [compound 191], the EC50 is above 1.2 µM.
As to `COc1cnc2c(Oc3ccc(Nc4nnc(-c5cc(C)cs5)c5ccccc45)cc3OC)ccnc2c1` [compound 567], the EC50 came out at 0.227 µM.
Still for that read-out and setting: under `COc1cc(OC)c2c(Oc3ccc(Nc4nnc(-c5ccc(Cl)cc5)c5ccccc45)cc3)ccnc2c1` [compound 435] stands 0.009 µM; under `COc1cnc2c(Oc3ccc(Nc4nnc(-c5ccc(Cl)cc5)c5c4CCC5)cc3)ccnc2c1` [compound 411], above 1.2 µM.
For the compound `N#Cc1cnc2c(Oc3ccc(Nc4nnc(-c5ccc(Cl)cc5)c5ccccc45)cc3)ccnc2c1` [compound 265, 8-((4-((4-(4-chlorophenyl)-1-phthalazinyl)amino)phenyl)oxy)-1,5-naphthyridine-3-carbonitrile], the EC50 was found to be 0.056 µM.
With `COc1cnc2c(Oc3ccc(Nc4nnc(N5CC[C@H]6CCCC[C@H]6C5)c5ccccc45)cc3)ccnc2c1` [compound 173], the EC50 amounted to 0.006 µM.
As to `COc1cnc2c(Oc3ccc(Nc4nnc(-c5ccc(C)c(F)c5)c5ccccc45)cc3)ccnc2c1` [compound 243], the EC50 is 0.006 µM.
For the compound `Cc1csc(-c2nnc(Nc3ccc(Oc4ncnc5ccccc45)cc3)c3ccccc23)c1` [compound 568], the EC50 turned out to be 0.034 µM.
Still for that read-out and setting: to `COc1cnc2c(Oc3ccc(Nc4nnc(-c5ccc(OC)c(C)c5)c5ccccc45)cc3)ccnc2c1` [compound 213] belongs 0.044 µM; to `c1ccc2c(-c3ccc4c(c3)OCO4)nnc(Nc3ccc(Oc4ccnc5ccncc45)cc3)c2c1` [compound 424], 0.024 µM.
`CCc1cc(-c2cccc(Cl)c2)nnc1Nc1ccc(Oc2ccnc3cc(OC)cnc23)cc1` [compound 335]: the EC50 came to 0.191 µM.
With `Clc1ccc(-c2nnc(Nc3ccc(Oc4ccnc5ccncc45)cc3)c3ccccc23)cc1` [compound 423], the EC50 came to 0.031 µM.
Turning to `COc1cnc2c(Oc3ccc(Nc4nnc(-c5ccc(Cl)cc5)c5ccccc45)cc3F)ccnc2c1` [compound 284], the EC50 worked out at 0.011 µM.
For `COc1cnc2c(Oc3ccc(Nc4nnc(-c5ccc(SC)cc5)c5ccccc45)cc3)ccnc2c1` [compound 237], the EC50 came to 0.03 µM.
For the compound `COc1cnc2c(Sc3ccc(Nc4nnc(N5CCC(N6CCCC6)CC5)c5ccccc45)cc3)ccnc2c1` [compound 538], the EC50 turned out to be 0.178 µM.
Regarding `N#Cc1ccc2c(Oc3ccc(Nc4nnc(-c5ccc(Cl)cc5)c5ccccc45)cc3)ccnc2c1` [compound 242], the EC50 came out at 0.019 µM.
Still for that read-out and setting: under `COc1cnc2c(Sc3ccc(Nc4nnc(-c5ccc6nonc6c5)c5ccccc45)cc3)ccnc2c1` [compound 504] stands 0.006 µM; under `N#Cc1cc2nccc(Sc3ccc(Nc4nnc(-c5ccc(Cl)cc5)c5ccccc45)cc3)c2o1` [compound 489], 0.017 µM; under `COc1cnc2c(Sc3ccc(Nc4nnc(N5CC[C@@H](OC)C5)c5ccccc45)cc3)ccnc2c1` [compound 540], 0.013 µM.
On the same count and under the same terms, under `COc1cc(OC)c2c(Sc3ccc(Nc4nnc(-c5ccccc5)c5ccccc45)cc3)ncnc2c1` [compound 581] stands 0.036 µM; under `COc1cnc2c(Sc3ccc(Nc4nnc(OC)c5ccccc45)cc3)ccnc2c1` [Example 402, 4-Methoxy-N-(4-(7-methoxy-1,5-naphthyridin-4-ylthio)phenyl)phthalazin-1-amine], 0.066 µM.
For `COc1cnc2c(Oc3ccc(Nc4nnc(-c5cc(CF)cs5)c5ccccc45)cc3)ccnc2c1` [Example 408, 4-(4-(Fluoromethyl)thiophen-2-yl)-N-(4-(7-methoxy-1,5-naphthyridin-4-yloxy)phenyl)phthalazin-1-amine], the EC50 amounted to 0.025 µM.
Take `COC1CCN(c2nnc(Nc3ccc(Sc4ccnc5cc(C#N)ccc45)cc3)c3ccccc23)CC1` [compound 534]: the EC50 turned out to be 0.006 µM.
Turning to `COc1cnc2c(Sc3ccc(Nc4nnc(OC(C)C)c5ccccc45)cc3)ccnc2c1` [compound 511], the EC50 turned out to be 0.094 µM.
Regarding `CCN(CC)C(=O)c1cc2nccc(Oc3ccc(Nc4nnc(-c5ccc(Cl)cc5)c5ccccc45)cc3)c2s1` [compound 270], the EC50 worked out at 0.082 µM.
On the same count and under the same terms, under `Clc1ccc(-c2nnc(Nc3ccc(Sc4ccnc5ccncc45)cc3)c3ccccc23)nc1` [compound 430] stands 0.007 µM; under `Cc1ccc(-c2nnc(Nc3ccc(Oc4ccnc5ccsc45)cc3)c3ccccc23)cc1` [compound 252], 0.027 µM.
In the case of `c1ccc(-c2nnc(Nc3ccc(Oc4ccnc5ccnn45)cc3)c3ccccc23)cc1` [compound 370], the EC50 was 0.757 µM.
`COCCOCCOc1ccc2nccc(Sc3ccc(Nc4nnc(-c5ccc(Cl)cc5)c5ccccc45)cc3)c2c1` [Example 389, 4-(4-Chlorophenyl)-N-(4-(6-(2-(2-methoxyethoxy)ethoxy)quinolin-4-ylthio)phenyl) phthalazin-1-amine]: the EC50 was determined as 0.055 µM.
For `CCc1cc(-c2ccc(C)s2)nnc1Nc1ccc(Oc2ccnc3cc(OC)cnc23)cc1` [compound 205, 4-ethyl-N-(4-((7-(methyloxy)-1,5-naphthyridin-4-yl)oxy)phenyl)-6-(5-methyl-2-thienyl)-3-pyridazinamine], the EC50 amounted to 0.074 µM.
Turning to `Oc1ccc2nccc(Sc3ccc(Nc4nnc(-c5ccc(Cl)cc5)c5ccccc45)cc3)c2c1` [Example 388, 4-(4-(4-(4-Chlorophenyl)phthalazin-1-ylamino)phenylthio)quinolin-6-ol], the EC50 worked out at 0.013 µM.
Same read-out and setting: under `COc1cnc2c(Oc3ccc(Nc4nnc(-c5ccc6c(c5)OC(F)(F)O6)c5ccccc45)cc3)ccnc2c1` [compound 291] stands 0.045 µM; under `COc1cnc2c(Sc3ccc(Nc4nnc(N5CCC[C@@H](OC)C5)c5ccccc45)cc3)ccnc2c1` [compound 532], 0.02 µM; under `COc1cnc2c(Oc3ccc(Nc4nnc(-c5ccc(C(F)(F)F)c(Cl)c5)c5ccccc45)cc3)ccnc2c1` [compound 172, 4-(3-chloro-4-(trifluoromethyl)phenyl)-N-(4-((7-(methyloxy)-1,5-naphthyridin-4-yl)oxy)phenyl)-1-phthalazinamine], 0.034 µM.
Consider `COc1ccc2nccc(Oc3ccc(Nc4nnc(-c5ccc6c(c5)OCO6)c5ccccc45)cc3)c2n1` [compound 551], for which the EC50 is 0.002 µM.
Regarding `Cc1csc(-c2nnc(Nc3ccc(Oc4ccnc5cccnc45)cc3)c3ccccc23)c1` [compound 447], the EC50 came out at 0.012 µM.
Take `COc1cnc2c(Oc3ccc(Nc4nnc(-c5ccc(C)nc5F)c5ccccc45)cc3)ccnc2c1` [compound 178]: the EC50 turned out to be 0.027 µM.
On to `Cc1ccc(-c2nnc(Nc3ccc(Sc4ccnc5ccoc45)cc3)c3ccccc23)cn1` [compound 481], for which the EC50 was found to be 0.032 µM.
For the compound `COc1cnc2c(Sc3ccc(Nc4nnc(-c5ccc(Cl)cn5)c5ccccc45)cc3)ccnc2c1` [compound 304, 4-(5-chloro-2-pyridinyl)-N-(4-((7-(methyloxy)-1,5-naphthyridin-4-yl)thio)phenyl)-1-phthalazinamine], the EC50 worked out at 0.008 µM.
On to `COc1cc(OC)c2c(Oc3ccc(Nc4nnc(-c5ccccc5)c5ccccc45)cn3)ncnc2c1` [compound 606], for which the EC50 stood at 0.292 µM.
`COCCOc1cc(-c2nnc(Nc3ccc(Oc4ccnc5cc(OC)cnc45)cc3)c3ccccc23)ccc1C` [Example 395, N-(4-(7-Methoxy-1,5-naphthyridin-4-yloxy)phenyl)-4-(3-(2-methoxyethoxy)-4-methylphenyl)phthalazin-1-amine]: the EC50 was found to be 0.023 µM.
On the same count and under the same terms, under `COc1cnc2c(Sc3ccc(Nc4nnc(-c5ccc(C)c(O)c5)c5ccccc45)cc3)ccnc2c1` [compound 451] stands below 0.0023 µM; under `Clc1ccc(-c2nnc(Nc3ccc(Sc4ccnc5ccccc45)cc3)c3ccccc23)nc1` [compound 365], 0.003 µM.
